In brackets after ≈: the same amount, converted by molar mass.
Legend:
Format in all cases: functional
Pseudomonas aeruginosa = experiment: Antibacterial activity against Pseudomonas aeruginosa ATCC 27853 after 24 hr by sepctrophotometric method; details: ATCC 27853, 24 h
Bacillus subtilis = experiment: Antibacterial activity against Bacillus subtilis ATCC 6633 after 24 hr by spectrophotometric method; details: ATCC 6633, 24 h
Escherichia coli = experiment: Antibacterial activity against Escherichia coli ATCC 25922 after 24 hr by spectrophotometric method; details: ATCC 25922, 24 h
Staphylococcus aureus = experiment: Antibacterial activity against Staphylococcus aureus ATCC 25923 after 24 hr by spectrophotometric method; details: ATCC 25923, 24 h
Candida albicans = experiment: Antifungal activity against Candida albicans ATCC 10231 after 48 hr by turbidity based microplate metohd; details: ATCC 10231, 48 h
Nakaseomyces glabratus = experiment: Antifungal activity against Candida glabrata ATCC 36583 after 48 hr by turbidity based microplate metohd; details: ATCC 36583, 48 h
[1] = tested on: Radical scavenging activity; experiment: Antioxidant activity assessed as decrease in DPPH free radical level after 20 min by DPPH assay method; set-up: concentration or dose not given beside the values

Row | Compound | MIC (Pseudomonas aeruginosa) | MIC (Bacillus subtilis) | MIC (Escherichia coli) | MIC (Staphylococcus aureus) | MIC (Candida albicans) | MIC (Nakaseomyces glabratus) | inhibition [1]
1 | CC1(C)S[C@@H]2[C@H](NC(=O)[C@H](N)c3ccccc3)C(=O)N2[C@H]1C(=O)O [AMPICILLIN] | 5 µg/mL (≈ 14.3 µM) | 5 µg/mL (≈ 14.3 µM) | 10 µg/mL (≈ 28.6 µM) | 19 µg/mL (≈ 54.4 µM) |  |  | 
2 | O=C(CC(=O)c1ccc(O[C@@H]2O[C@H](CO)[C@@H](O)[C@H](O)[C@H]2O)cc1O)c1cccs1 | 150 µg/mL (≈ 353 µM) | 150 µg/mL (≈ 353 µM) | 1250 µg/mL (≈ 2950 µM) | 300 µg/mL (≈ 707 µM) | 2500 µg/mL (≈ 5890 µM) | 5000 µg/mL (≈ 11800 µM) | 74.2%
3 | O=C1O[C@H]([C@@H](O)CO)C(O)=C1O |  |  |  |  |  |  | 98%
4 | O=C(CC(=O)c1cc(Cl)c(O[C@@H]2O[C@H](CO)[C@@H](O)[C@H](O)[C@H]2O)cc1O)c1cccnc1 | 5000 µg/mL (≈ 11000 µM) | 300 µg/mL (≈ 661 µM) | 5000 µg/mL (≈ 11000 µM) | 5000 µg/mL (≈ 11000 µM) | 10000 µg/mL (≈ 22000 µM) | 10000 µg/mL (≈ 22000 µM) | 79.5%
5 | OC(Cn1cncn1)(Cn1cncn1)c1ccc(F)cc1F [FLUCONAZOLE] |  |  |  |  | 10 µg/mL (≈ 32.7 µM) | 10 µg/mL (≈ 32.7 µM) | 
6 | O=C(CC(=O)c1ccc(O[C@@H]2O[C@H](CO)[C@@H](O)[C@H](O)[C@H]2O)cc1O)c1ccccn1 | 19 µg/mL (≈ 45.3 µM) | 300 µg/mL (≈ 715 µM) | 70 µg/mL (≈ 167 µM) | 150 µg/mL (≈ 358 µM) | 2500 µg/mL (≈ 5960 µM) | 5000 µg/mL (≈ 11900 µM) | 79%
7 | O=C(CC(=O)c1cc(Cl)c(O[C@@H]2O[C@H](CO)[C@@H](O)[C@H](O)[C@H]2O)cc1O)c1ccccn1 | 19 µg/mL (≈ 41.9 µM) | 1250 µg/mL (≈ 2750 µM) | 19 µg/mL (≈ 41.9 µM) | 150 µg/mL (≈ 331 µM) | 150 µg/mL (≈ 331 µM) | 2500 µg/mL (≈ 5510 µM) | 85.5%
8 | O=C(CC(=O)c1ccc(O[C@@H]2O[C@H](CO)[C@@H](O)[C@H](O)[C@H]2O)cc1O)c1ccco1 | 5000 µg/mL (≈ 12200 µM) | 150 µg/mL (≈ 367 µM) | 2500 µg/mL (≈ 6120 µM) | 625 µg/mL (≈ 1530 µM) | 5000 µg/mL (≈ 12200 µM) | 5000 µg/mL (≈ 12200 µM) | 84.3%
9 | O=C(CC(=O)c1cc(Cl)c(O[C@@H]2O[C@H](CO)[C@@H](O)[C@H](O)[C@H]2O)cc1O)c1ccco1 | 19 µg/mL (≈ 42.9 µM) | 300 µg/mL (≈ 678 µM) | 70 µg/mL (≈ 158 µM) | 150 µg/mL (≈ 339 µM) | 2500 µg/mL (≈ 5650 µM) | 5000 µg/mL (≈ 11300 µM) | 77%
10 | O=C(CC(=O)c1cc(Cl)c(O[C@@H]2O[C@H](CO)[C@@H](O)[C@H](O)[C@H]2O)cc1O)c1cccs1 | 30 µg/mL (≈ 65.4 µM) | 625 µg/mL (≈ 1360 µM) | 5000 µg/mL (≈ 10900 µM) | 300 µg/mL (≈ 654 µM) | 5000 µg/mL (≈ 10900 µM) | 150 µg/mL (≈ 327 µM) | 81.2%
11 | O=C(CC(=O)c1ccc(O[C@@H]2O[C@H](CO)[C@@H](O)[C@H](O)[C@H]2O)cc1O)c1cccnc1 | 1250 µg/mL (≈ 2980 µM) | 625 µg/mL (≈ 1490 µM) | 300 µg/mL (≈ 715 µM) | 150 µg/mL (≈ 358 µM) | 10000 µg/mL (≈ 23800 µM) | 5000 µg/mL (≈ 11900 µM) | 74.2%

— ChEMBL document CHEMBL3045102, “Antibacterial, antifungal and antioxidant activity of some new water-soluble -diketones” (2013)
